Legend:
Assay type in all cases: functional
[1] = tested on: Mastomys coucha; test: Tested for in vivo antifilarial activity against Acanthocheilonema viteae macrofilariae infection in Mastomys coucha at 50 mg/kgx 5 days after ip administration, expressed as % reduction in parasite load; conditions: dose 50 mg/kg; route intraperitoneal
[2] = tested on: Acanthocheilonema viteae; test: Effect of compound on ATP content in Acanthocheilonema viteae at 10 uM concentration (p>0.05)
[3] = tested on: Acanthocheilonema viteae; test: Effect of compound on glucose uptake in Acanthocheilonema viteae at 10 uM concentration (p<0.05)
[4] = tested on: Acanthocheilonema viteae; test: Effect of compound on lactate produced in Acanthocheilonema viteae at 10 uM concentration (p>0.05)
[5] = tested on: Mastomys coucha; test: Tested for in vivo antifilarial activity against Acanthocheilonema viteae microfilariae infection in Mastomys coucha at 50 mg/kgx 5 days after ip administration, expressed as % reduction in parasite load; conditions: dose 50 mg/kg; route intraperitoneal
[6] = tested on: Acanthocheilonema viteae; test: Effect of compound on glucose uptake in Acanthocheilonema viteae at 10 uM concentration(p<0.005)
[7] = tested on: Acanthocheilonema viteae; test: Effect of compound on lactate produced in Acanthocheilonema viteae at 10 uM concentration(p<0.005)
[8] = tested on: Acanthocheilonema viteae; test: Effect of compound on ATP content in Acanthocheilonema viteae at 10 uM concentration (p<0.005)
[9] = tested on: Acanthocheilonema viteae; test: Effect of compound on lactate produced in Acanthocheilonema viteae at 10 uM concentration (p<0.005)
[10] = tested on: Mastomys coucha; test: Tested for in vivo antifilarial activity against Litomosoides carinii macrofilariae infection in Mastomys coucha at 30 mg/kgx 5 days after ip administration, expressed as % reduction in parasite load with 30% sterilization of female worms; conditions: dose 30 mg/kg; route intraperitoneal
[11] = tested on: Mastomys coucha; test: Tested for in vivo antifilarial activity against Litomosoides carinii microfilariae infection in Mastomys coucha at 30 mg/kgx 5 days after ip administration, expressed as % reduction in parasite load with 30% sterilization of female worms; conditions: dose 30 mg/kg; route intraperitoneal
[12] = tested on: Acanthocheilonema viteae; test: Effect of compound on glucose uptake in Acanthocheilonema viteae at 10 uM concentration (p<0.005)
[13] = tested on: Acanthocheilonema viteae; test: Effect of compound on lactate produced in Acanthocheilonema viteae at 10 uM concentration (p<0.05)
[14] = tested on: Acanthocheilonema viteae; test: Effect of compound on glucose uptake in Acanthocheilonema viteae at 10 uM concentration (p>0.05)
[15] = tested on: Mastomys coucha; test: Tested for in vivo antifilarial activity against A. viteae microfilariae infection in Mastomys coucha at 50 mg/kgx 5 days after ip administration, expressed as % reduction in parasite load; conditions: dose 50 mg/kg; route intraperitoneal
[16] = tested on: Mastomys coucha; test: Tested for in vivo antifilarial activity against Litomosoides carinii macrofilariae infection in Mastomys coucha at 6 mg/kgx 5 days after ip administration, expressed as % reduction in parasite load; conditions: dose 6 mg/kg; route intraperitoneal
[17] = tested on: Mastomys coucha; test: Tested for in vivo antifilarial activity against Litomosoides carinii macrofilariae infection in Mastomys coucha at 350 mg/kgx 5 days after ip administration, expressed as % reduction in parasite load; conditions: dose 350 mg/kg; route intraperitoneal
[18] = tested on: Mastomys coucha; test: Tested for in vivo antifilarial activity against Litomosoides carinii microfilariae infection in Mastomys coucha at 350 mg/kgx 5 days after ip administration, expressed as % reduction in parasite load; conditions: dose 350 mg/kg; route intraperitoneal
[19] = tested on: Acanthocheilonema viteae; test: Effect of compound on lactate produced in Acanthocheilonema viteae at 10 uM concentration(p>0.05)
[20] = tested on: Mastomys coucha; test: Tested for in vivo antifilarial activity against Litomosoides carinii microfilariae infection in Mastomys coucha at 6 mg/kgx 5 days after ip administration, expressed as % reduction in parasite load; conditions: dose 6 mg/kg; route intraperitoneal

In the case of N#CC(C#N)=CNCCO, the Reduction [1] was 0%, the ATP content [2] was 47.8 pM (mg of protein)-1 and the Glucose uptake [3] was 164 nM/h (mg of worm). For the same molecule, the Lactate produced [4] was 343 nM/h (mg of worm) and the Reduction [5] was 82%.

In the case of N#CC(C#N)=CNc1ccc(F)cc1, the Reduction [1] was 0%, the Glucose uptake [6] was 56 nM/h (mg of worm) and the Lactate produced [7] was 222 nM/h (mg of worm). The ATP content [8] was 16.9 pM (mg of protein)-1 and the Reduction [5] was 91%.

N#CC(C#N)=CN1CCN(c2ccccn2)CC1 was tested, and the Lactate produced [9] was 157 nM/h (mg of worm), the Reduction [10] was 60% and the ATP content [8] was 37.1 pM (mg of protein)-1. The Reduction [11] was 60% and the Glucose uptake [12] was 105 nM/h (mg of worm).

In the case of N#CC(C#N)=CN1CCN(C=C(C#N)C#N)CC1, the Reduction [1] was 81%, the Glucose uptake [3] was 327 nM/h (mg of worm) and the Lactate produced [13] was 258 nM/h (mg of worm). For the same molecule, the ATP content [8] was 25.7 pM (mg of protein)-1 and the Reduction [5] was 0%.

With N#CC(C#N)=CN(CCO)CCO the Reduction [1] was 0%, the ATP content [2] was 49.3 pM (mg of protein)-1 and the Lactate produced [4] was 405 nM/h (mg of worm). For the same molecule, the Glucose uptake [14] was 204 nM/h (mg of worm) and the Reduction [5] was 76%.

N#CC(C#N)=CNc1ccccc1 was tested, and the Reduction [1] was 0%, the ATP content [2] was 53.5 pM (mg of protein)-1 and the Reduction [15] was 47%. The Lactate produced [4] was 443 nM/h (mg of worm) and the Glucose uptake [14] was 189 nM/h (mg of worm).

With CCN(CC)C(=O)N1CCN(C)CC1.O=C(O)CC(O)(CC(=O)O)C(=O)O [DIETHYLCARBAMAZINE CITRATE] the Reduction [16] was 0%, the ATP content [2] was 55.6 pM (mg of protein)-1 and the Reduction [17] was 0%. For the same molecule, the Reduction [18] was 90%, the Glucose uptake [14] was 256 nM/h (mg of worm) and the Lactate produced [19] was 461 nM/h (mg of worm). It also gave a Reduction [20] of 98%.
